For 36 compounds, inhibition and IC50 results are on record in ChEMBL document CHEMBL2046367, “Novel BACE1 inhibitors possessing a 5-nitroisophthalic scaffold at the P2 position” (Bioorg Med Chem Lett, 2012).

Structures are written as SMILES.

For assay [1], the target named is T1, Beta-secretase 1 (Homo sapiens, UniProt P56817). Nature of the assay: Inhibition of human recombinant BACE1 at 2 uM by FRET assay.
Assay [2] concerns the target T1, Beta-secretase 1. The experiment in a line: Inhibition of human recombinant BACE1 at 0.2 uM by FRET assay.
Assay [3] has as its target T1, Beta-secretase 1. Nature of the assay: Inhibition of human recombinant BACE1 by FRET assay.

T1 sequence (P56817 whole entry): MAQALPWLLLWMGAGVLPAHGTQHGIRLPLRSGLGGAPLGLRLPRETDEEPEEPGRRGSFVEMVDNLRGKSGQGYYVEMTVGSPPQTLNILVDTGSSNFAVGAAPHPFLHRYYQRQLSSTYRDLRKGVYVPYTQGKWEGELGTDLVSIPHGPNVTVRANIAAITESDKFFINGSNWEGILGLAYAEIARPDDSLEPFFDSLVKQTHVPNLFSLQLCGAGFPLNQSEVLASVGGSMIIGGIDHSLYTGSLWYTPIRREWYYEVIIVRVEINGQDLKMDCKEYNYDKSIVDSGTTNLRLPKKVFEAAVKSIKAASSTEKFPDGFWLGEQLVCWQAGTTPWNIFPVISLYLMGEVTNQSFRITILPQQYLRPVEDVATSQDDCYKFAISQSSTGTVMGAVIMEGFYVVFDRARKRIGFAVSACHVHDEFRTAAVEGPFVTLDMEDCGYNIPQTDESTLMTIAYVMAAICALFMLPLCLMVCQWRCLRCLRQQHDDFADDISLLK

One may read the inhibition as the relative decrease from the control value, in per cent. On to `O=C(N[C@@H](Cc1ccccc1)[C@H](O)C(=O)Nc1cccc(-c2nn[nH]n2)c1)c1cc(C(=O)N2CCOCC2)cc([N+](=O)[O-])c1`, for which the inhibition on Beta-secretase 1 [1] is 0%. On to `O=C(N[C@@H](Cc1ccccc1)[C@H](O)C(=O)Nc1cccc(-c2nn[nH]n2)c1)c1cc(C(=O)N2CCCCC2)cc([N+](=O)[O-])c1`, for which the inhibition at Beta-secretase 1 [1] came to 49%. Regarding `C[C@@H](NC(=O)c1cc(C(=O)N[C@@H](Cc2ccccc2)[C@H](O)C(=O)Nc2cccc(-c3nn[nH]n3)c2)cc([N+](=O)[O-])c1)c1ccc(F)cc1`, the inhibition at Beta-secretase 1 [2] came out at 50%; at Beta-secretase 1 [1], 87%. Regarding `CC(C)C[C@H]1COCN1C(=O)c1cc(C(=O)N[C@@H](Cc2ccccc2)[C@H](O)C(=O)Nc2cccc(-c3nn[nH]n3)c2)cc([N+](=O)[O-])c1`, the values for the inhibition on Beta-secretase 1 [2] and on Beta-secretase 1 [1] were 42% and 85%, respectively. For the compound `O=C(N[C@@H](Cc1ccccc1)[C@H](O)C(=O)Nc1cccc(-c2nn[nH]n2)c1)c1cc(C(=O)N2CCCC2)cc([N+](=O)[O-])c1`, the inhibition on Beta-secretase 1 [1] turned out to be 24%. As for `CC[C@H]1COCN1C(=O)c1cc(C(=O)N[C@@H](Cc2ccccc2)[C@H](O)C(=O)Nc2cccc(-c3nn[nH]n3)c2)cc([N+](=O)[O-])c1`, the results for the inhibition at Beta-secretase 1 [2] and on Beta-secretase 1 [1] were 54% and 92%, respectively. In the same order, the values of `CSCC[C@H]1COCN1C(=O)c1cc(C(=O)N[C@@H](Cc2ccccc2)[C@H](O)C(=O)Nc2cccc(-c3nn[nH]n3)c2)cc([N+](=O)[O-])c1` are 45% and 86%. With `O=C(N[C@@H](Cc1ccccc1)[C@H](O)C(=O)Nc1cccc(-c2nn[nH]n2)c1)c1cc(C(=O)N2CCCCCCC2)cc([N+](=O)[O-])c1`, the inhibition on Beta-secretase 1 [2] came to 38%; on Beta-secretase 1 [1], 80%. Take `O=C(N[C@@H](Cc1ccccc1)[C@H](O)C(=O)Nc1cccc(-c2nn[nH]n2)c1)c1cc(C(=O)N2COC[C@@H]2Cc2c[nH]c3ccccc23)cc([N+](=O)[O-])c1`: the inhibition at Beta-secretase 1 [1] worked out at 57%. For `CCCC[C@H]1COCN1C(=O)c1cc(C(=O)N[C@@H](Cc2ccccc2)[C@H](O)C(=O)Nc2cccc(-c3nn[nH]n3)c2)cc([N+](=O)[O-])c1`, the inhibition at Beta-secretase 1 [2] came to 59%; at Beta-secretase 1 [1], 92%. Usually IC50 stands for the point on the concentration scale where inhibition reaches its midpoint. Consider `O=C(O)c1cc(C(=O)N[C@@H](Cc2ccccc2)[C@H](O)C(=O)Nc2cccc(-c3nn[nH]n3)c2)cc(C(=O)N2COC[C@@H]2c2ccccc2)c1`, for which the inhibition on Beta-secretase 1 [2] amounted to 60%; at Beta-secretase 1 [1], 91%. Also, on Beta-secretase 1 [3], the IC50 came to 122 nM.

On to `CCC(C)[C@H]1COCN1C(=O)c1cc(C(=O)N[C@@H](Cc2ccccc2)[C@H](O)C(=O)Nc2cccc(-c3nn[nH]n3)c2)cc([N+](=O)[O-])c1` (stereo partly specified), for which the inhibition stood at 62% on Beta-secretase 1 [2] and 94% at Beta-secretase 1 [1]. Take `COC[C@H]1CCCN1C(=O)c1cc(C(=O)N[C@@H](Cc2ccccc2)[C@H](O)C(=O)Nc2cccc(-c3nn[nH]n3)c2)cc([N+](=O)[O-])c1`: the inhibition is 57% at Beta-secretase 1 [2] and 89% at Beta-secretase 1 [1]. With `CC(C)(C)c1cc(C(=O)N[C@@H](Cc2ccccc2)[C@H](O)C(=O)Nc2cccc(-c3nn[nH]n3)c2)cc(C(=O)N2COC[C@@H]2c2ccccc2)c1`, the inhibition on Beta-secretase 1 [1] stood at 63%. As to `O=C(N[C@@H](Cc1ccccc1)[C@H](O)C(=O)Nc1cccc(-c2nn[nH]n2)c1)c1cc(C(=O)N2COC[C@@H]2c2ccc(F)cc2)cc([N+](=O)[O-])c1`, the values for the inhibition on Beta-secretase 1 [2] and on Beta-secretase 1 [1] were 91% and 99%, respectively. Also, the IC50 on Beta-secretase 1 [3] stood at 13 nM. `Nc1cc(C(=O)N[C@@H](Cc2ccccc2)[C@H](O)C(=O)Nc2cccc(-c3nn[nH]n3)c2)cc(C(=O)N2COC[C@@H]2c2ccccc2)c1`: the inhibition at Beta-secretase 1 [1] came out at 49%. For the compound `O=C(N[C@@H](Cc1ccccc1)[C@H](O)C(=O)Nc1cccc(-c2nn[nH]n2)c1)c1cc(C(=O)N2COC[C@@H]2c2cc(F)c(F)c(F)c2)cc([N+](=O)[O-])c1`, the inhibition on Beta-secretase 1 [2] stood at 41%; on Beta-secretase 1 [1], 81%. Take `O=C(N[C@@H](Cc1ccccc1)[C@H](O)C(=O)Nc1cccc(-c2nn[nH]n2)c1)c1cccc(C(=O)N2COC[C@@H]2c2ccccc2)c1`: the inhibition was found to be 46% on Beta-secretase 1 [2] and 85% on Beta-secretase 1 [1]. Moreover, the IC50 at Beta-secretase 1 [3] was 192 nM. Regarding `O=C(N[C@@H](Cc1ccccc1)[C@H](O)C(=O)Nc1cccc(-c2nn[nH]n2)c1)c1cc(C(=O)N2COC[C@@H]2Cc2ccccc2)cc([N+](=O)[O-])c1`, the inhibition on Beta-secretase 1 [2] was 45%; on Beta-secretase 1 [1] it was 89%. As to `O=C(N[C@@H](Cc1ccccc1)[C@H](O)C(=O)Nc1cccc(-c2nn[nH]n2)c1)c1cc(C(=O)N2COC[C@@H]2CC2CCCCC2)cc([N+](=O)[O-])c1`, at Beta-secretase 1 [1], the inhibition is 50%. As to `C[C@@H](NC(=O)c1cc(C(=O)N[C@@H](Cc2ccccc2)[C@H](O)C(=O)Nc2cccc(-c3nn[nH]n3)c2)cc([N+](=O)[O-])c1)c1ccccc1`, the inhibition on Beta-secretase 1 [2] worked out at 44%; on Beta-secretase 1 [1], 83%. For `O=C(N[C@@H](Cc1ccccc1)[C@H](O)C(=O)Nc1cccc(-c2nn[nH]n2)c1)c1cc(C(=O)N2COC[C@@H]2Cc2ccc(O)cc2)cc([N+](=O)[O-])c1`, on Beta-secretase 1 [1], the inhibition was 80%. Regarding `O=C(N[C@@H](Cc1ccccc1)[C@H](O)C(=O)Nc1cccc(-c2nn[nH]n2)c1)c1cc(C(=O)N2CCCCCC2)cc([N+](=O)[O-])c1`, the inhibition on Beta-secretase 1 [1] came to 60%. `Cc1cc(C(=O)N[C@@H](Cc2ccccc2)[C@H](O)C(=O)Nc2cccc(-c3nnn[nH]3)c2)cc(C(=O)N2COC[C@@H]2c2ccccc2)c1`: the IC50 at Beta-secretase 1 [3] came to 67 nM. Consider `CC(C)(C)[C@H]1COCN1C(=O)c1cc(C(=O)N[C@@H](Cc2ccccc2)[C@H](O)C(=O)Nc2cccc(-c3nn[nH]n3)c2)cc([N+](=O)[O-])c1`, for which the inhibition on Beta-secretase 1 [1] is 71%. For `CCC[C@H]1COCN1C(=O)c1cc(C(=O)N[C@@H](Cc2ccccc2)[C@H](O)C(=O)Nc2cccc(-c3nn[nH]n3)c2)cc([N+](=O)[O-])c1`, the inhibition on Beta-secretase 1 [2] is 57%; on Beta-secretase 1 [1] it was 93%. As to `CC(C)[C@H]1COCN1C(=O)c1cc(C(=O)N[C@@H](Cc2ccccc2)[C@H](O)C(=O)Nc2cccc(-c3nn[nH]n3)c2)cc([N+](=O)[O-])c1`, the inhibition was determined as 44% at Beta-secretase 1 [2] and 88% at Beta-secretase 1 [1].

`Cc1cc(C(=O)N[C@@H](Cc2ccccc2)[C@H](O)C(=O)Nc2cccc(-c3nn[nH]n3)c2)cc(C(=O)N2COC[C@@H]2c2ccccc2)c1`: the inhibition was found to be 65% at Beta-secretase 1 [2] and 95% on Beta-secretase 1 [1]. For `O=C(N[C@@H](Cc1ccccc1)[C@H](O)C(=O)Nc1cccc(-c2nn[nH]n2)c1)c1cc(C(=O)N2COC[C@@H]2c2ccccc2)cc([N+](=O)[O-])c1`, the inhibition on Beta-secretase 1 [2] came out at 88%; at Beta-secretase 1 [1], 98%. The IC50 on Beta-secretase 1 [3] was 19 nM.

On to `O=C(N[C@@H](Cc1ccccc1)[C@H](O)C(=O)Nc1cccc(-c2nn[nH]n2)c1)c1cc(Br)cc(C(=O)N2COC[C@@H]2c2ccccc2)c1`, for which the inhibition on Beta-secretase 1 [2] came to 84%; on Beta-secretase 1 [1], 98%. The IC50 on Beta-secretase 1 [3] is 25 nM. Turning to `CCCN(CCC)C(=O)c1cc(C(=O)N[C@@H](Cc2ccccc2)[C@H](O)C(=O)Nc2cccc(-c3nn[nH]n3)c2)cc([N+](=O)[O-])c1`, the inhibition on Beta-secretase 1 [1] stood at 79%. Consider `O=C(N[C@@H](Cc1ccccc1)[C@H](O)C(=O)Nc1cccc(-c2nnn[nH]2)c1)c1cc(I)cc(C(=O)N2COC[C@@H]2c2ccccc2)c1`, for which the IC50 at Beta-secretase 1 [3] came to 34 nM.

Regarding `C[C@H]1COCN1C(=O)c1cc(C(=O)N[C@@H](Cc2ccccc2)[C@H](O)C(=O)Nc2cccc(-c3nn[nH]n3)c2)cc([N+](=O)[O-])c1`, the inhibition on Beta-secretase 1 [1] was 33%. As for `O=C(N[C@@H](Cc1ccccc1)[C@H](O)C(=O)Nc1cccc(-c2nn[nH]n2)c1)c1cc(I)cc(C(=O)N2COC[C@@H]2c2ccccc2)c1`, the results for the inhibition on Beta-secretase 1 [2] and on Beta-secretase 1 [1] were 78% and 98%, respectively. Regarding `O=C(N[C@@H](Cc1ccccc1)[C@H](O)C(=O)Nc1cccc(-c2nn[nH]n2)c1)c1cc(C(=O)N2CCCCCCCC2)cc([N+](=O)[O-])c1`, the inhibition on Beta-secretase 1 [1] came out at 28%. As for `CC(=O)Oc1cc(C(=O)N[C@@H](Cc2ccccc2)[C@H](O)C(=O)Nc2cccc(-c3nn[nH]n3)c2)cc(C(=O)N2COC[C@@H]2c2ccccc2)c1`, on Beta-secretase 1 [1], the inhibition amounted to 79%.
